Data taken from patent EP0248231B1, “Pharmacologically active peptides” (Brantl, Victor, Dr. med., Dipl.-Chem., priority 1986, dated 1993).
pIC50: −log10 of the molar value. Residues, ends and D or L forms follow the SMILES beside them.

Test system: plexus myentericus/ Längsmuskel-Präparat des Meerschweinchenileums (GPI)
Experiment: Inhibition of electrically induced contraction of the myenteric plexus/longitudinal muscle preparation of guinea pig ileum (GPI)
Format: cell-based
Conditions: means of 4-6 determinations; standard deviation below 14 %; read-out: GPI: Konzentration, die notwendig ist, die elektrisch induzierte Kontraktion des Meerschweinchen-Darm-Präparates (GPI) um 50 % zu hemmen (IC₅₀-Wert)
Excerpt: Die beiden Substanzen zeigen spezifische opiatartige Wirkungen am elektrisch stimulierten plexus myentericus/ Längsmuskel-Präparat des Meerschweinchenileums (GPI), Methode: Schulz und Goldstein, J. Pharmacol. Exptl. Ther. 183, 400, 1972. Die Ergebnisse sind in Tabelle 1 aufgeführt.
Tabelle 1. Opiatartige Wirkungen zweier erfindungsgemäßer Peptide; die Zahlen geben diejenige Konzentration (µM) an, die notwendig ist, die elektrisch induzierte Kontraktion des Meerschweinchen-Darm-Präparates (GPI) um 50 % zu hemmen (IC₅₀-Wert). Die Zahlen sind Mittelwerte aus 4-6 Bestimmungen; die Standardabweichung von den Mittelwerten ist kleiner als 14 %. Die Hemmungen des GPI sind mit dem spezifischen Opioid-Antagonisten Naloxon aufhebbar bzw. bei Vorbehandlung blockierbar. (Endkonzentration des Naloxons im Organbad 0,5 µM).

Compound	pIC50
Oc1ccc2c3c1O[C@H]1[C@@H](O)C=C[C@H]4[C@@H](C2)NCC[C@@]341 [Normorphin]	7.00
H-YPWTQ-OH [Tyr-Pro-Trp-Thr-Gln, H-Tyr-Pro-Trp-Thr-Gln-OH]	4.34
C[C@@H](O)[C@H](NC(=O)[C@H](Cc1c[nH]c2ccccc12)NC(=O)[C@@H]1CCCN1C(=O)[C@@H](N)Cc1ccc(O)cc1)C(=O)O [Tyr-Pro-Trp-Thr, H-Tyr-Pro-Trp-Thr-OH] (H-YPWT-OH)	4.34
